This is an account of results in paper PMC8958510 (Journal of Medicinal Chemistry, 2022).

Data set [1] deals with hippocampus of SAMP8 mice. Kind of data set: Hippocampal gene expression of inflammatory markers by qPCR in SAMP8 mice. The note with it: 2 mg kg^–1 day^–1 oral, 4 weeks, vs control. Type of data set: in vivo, mouse. The method, then:
Compostela, Spain). The human, rat and mice pooled microsomes, with a protein content of 20 mg mL‒1, were purchased from Tebu-Xenotech. The compounds were incubated in a 96-well microplate at 37 °C with the microsomes in 50 mM phosphate buffer (pH = 7.4) containing as cofactors 30 mM MgCl2, 10 mM NADP, 100 mM glucose-6-phosphate and 40 […]
Samples (75 µL) were taken from each well at 0, 10, 20, 40 and 60 min and transferred to a microplate. 4 °C Acetonitrile (75 µL) and internal standard (rolipram) were then added for inactivating the microsomes, and water with 0.5% formic acid (30 µL) was subsequently added for improving the chromatographic conditions, keeping the mixtures at 4 °C. The plate was centrifuged at 46,000 g for 30 min at 15 °C and supernatants were taken and analyzed in a UPLC-MS/MS system (UPLC QSM Waters Acquity) using reverse phase Acquity UPLC® HSST3 1.7 μm (2.1 mm × 50 mm, Waters) as the stationary phase, 0.1% formic acid in water (A) / 0.1% formic acid in acetonitrile (B) as the mobile phase, a flow of 0.8 mL min‒1, and the […]
The metabolic stability of the compounds was calculated from the logarithm of the remaining compound at each of the time points studied.
In Vivo Proof-of-Concept of the Dual sEH / AChE Inhibitor […] in SAMP8 Mice Animals and treatment. The senescence-accelerated mouse-prone 8 (SAMP8) is an accelerated aging model established through phenotypic selection from AKR/J mice by […]
abnormal APP and β-amyloid processing and tau pathology, among others. Likewise, SAMP8 […]
and oxidative stress markers are present at early ages and during adultness.15 In this work, 5-month-old male SAMP8 mice were used to perform behavioral and molecular analyses.
Animals were randomly divided into SAMP8 control (n=8) and SAMP8 treated with 12c […]
(n=8, 2 mg kg‒1 day‒1). The animals had free access to food and water and were kept under standard temperature conditions (22 ± 2 °C) and 12-h/12-h light/dark cycles (300 lux/0 lux).
Compound 12c was dissolved in 1.8% (2-hydroxypropyl)-β-cyclodextrin (Sigma-Aldrich, St. […]
(In general: In qPCR the cycle at which signal appears reflects the starting amount.)

In another data set the test system is SH-SY5Y cells. Kind of data set: Cytotoxicity in SH-SY5Y cells, propidium iodide stain. In kind it is cell-based, human.
Data set [2] addresses PAS of Electrophorus electricus AChE (EeAChE) (Electrophorus electricus, UniProt O42275). Kind of data set: Propidium displacement studies (PAS of AChE). Type of data set: binding. Further details: purchased Sigma-Aldrich type VI-S. The conditions noted are these: mean ± SD of two independent experiments, read-out: KD (displacement of propidium from PAS).
Protocol: Propidium Displacement Studies.
electricus AChE (EeAChE) (type VI-S, Sigma-Aldrich) was determined using the PAS-
specific ligand propidium iodide (P) (Sigma-Aldrich), following a described procedure.9
Complexation of propidium iodide and AChE leads to a shift in the excitation wavelength.9
Fluorescence intensity was monitored with a Jasco 6200 spectrofluorometer (Jasco Europe,
Italy) using a 0.5 mL quartz cuvette at rt. EeAChE (2 μM) was first incubated with 8 mM
propidium iodide in 1 mM Tris-HCl, pH 8.0 at rt.
prepared in MeOH. In the back titration experiments of the propidium‒AChE complex by
fluorescence emission was determined. KD values were obtained after processing the raw data
values are expressed as mean ± standard deviation (SD) of two independent experiments.
Data set [3] is described as follows: Microsomal stability, human liver microsomes. Type of data set: in vitro ADME. In general terms: Liver microsomes are vesicles of endoplasmic reticulum, rich in cytochrome P450 enzymes.
Protocol: Microsomal stability screen. The microsomal stability of the target compounds was
determined at the Innopharma Drug Screening and Pharmacogenomics Platform (Santiago de

A value given as a limit tells only on which side of the number the result lay.

Chain of PAS of Electrophorus electricus AChE (EeAChE) (O42275 24-633): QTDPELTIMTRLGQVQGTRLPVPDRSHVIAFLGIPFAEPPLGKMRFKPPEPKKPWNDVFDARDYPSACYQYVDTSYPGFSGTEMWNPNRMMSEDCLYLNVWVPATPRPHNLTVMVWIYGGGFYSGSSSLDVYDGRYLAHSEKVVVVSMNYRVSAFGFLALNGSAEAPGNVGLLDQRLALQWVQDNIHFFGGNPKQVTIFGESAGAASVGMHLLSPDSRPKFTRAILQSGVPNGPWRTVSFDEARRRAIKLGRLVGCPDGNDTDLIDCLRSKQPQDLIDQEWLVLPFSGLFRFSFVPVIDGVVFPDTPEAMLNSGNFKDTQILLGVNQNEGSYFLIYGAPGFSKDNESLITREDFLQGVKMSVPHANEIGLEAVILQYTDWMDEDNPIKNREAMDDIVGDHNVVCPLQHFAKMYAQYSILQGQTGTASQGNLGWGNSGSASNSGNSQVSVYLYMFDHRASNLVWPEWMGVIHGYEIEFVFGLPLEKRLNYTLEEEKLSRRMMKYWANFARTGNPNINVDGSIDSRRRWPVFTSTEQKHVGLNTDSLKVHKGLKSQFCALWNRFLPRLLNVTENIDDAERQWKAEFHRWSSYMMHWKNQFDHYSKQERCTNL
Protocol for SH-SY5Y cells: Cytotoxicity in SH-SY5Y cells. The cytotoxicity of the target compounds was evaluated in
Minimum Essential Medium / Ham’s-F12 (1:1, v/v) medium (Biowest), supplemented with
non-essential amino acids, 10% fetal bovine serum, 1 mM glutamine and 50 µg mL‒1
gentamycin (all reagents from Gibco, Thermo Fisher Scientific). For the experiments, cells
were seeded at 3 × 10^5 cells mL‒1 (100 µL per well) in 96-well plates (Nunc). After 24 h, the
test compounds were added concentrated from stock solutions in DMSO and culture medium
to triplicate wells to obtain the final different concentrations up to 100 µM in 0.1% DMSO.
Compounds were incubated for further 24 h. At termination, cytotoxicity was analyzed by the
propidium iodide (PI) fluorescence stain assay. All compounds were tested in three
independent experiments using different cell passages. The PI assay measures cell death. PI
enters into the cells with damaged membranes and greatly increases the fluorescence upon
binding to DNA. PI reagent (Molecular Probes) at the final concentration of 7.5 µg mL‒1 was
added to the cells and incubated for 1 h. The resulting fluorescence was measured by a Flx-
death induced by the compounds was calculated from to the fluorescence of treated cells (Ft)
relative to that of control cells (Fmin) and cells incubated with Triton X100 (Fmax) as the 0%
and 100% cell death, respectively [% = ((Ft-Fmin)/(Fmax-Fmin)) × 100]. All compounds
were tested in three independent experiments using different cell passages. LC50 values were
calculated for each experiment and the results are expressed as mean ± SD.

For orientation: Kd means a measure of binding affinity in units of concentration. For orientation: microsomal CLint means the rate of metabolic loss divided by the concentration. What is called share remaining is what is left of the initial amount, in per cent. As for `O=C(Nc1ccc(OC(F)(F)F)cc1)NC1CCN(C(=O)CCCCNc2c3c(nc4cc(Cl)ccc24)CCCC3)CC1` [12c, 1-{1-{5-[(6-Chloro-1,2,3,4-tetrahydroacridin-9-yl)amino]pentanoyl}piperidin-4-yl}-3-[4-(trifluoromethoxy)phenyl]urea], in data set [1], the Gfap gene expression entry is given as “tendency toward reduced gene expression”, the Il-1β gene expression result is recorded as “tendency toward reduced gene expression” and the Il-6 gene expression entry was “significant reduction”. Besides, the “toxicity to SH-SY5Y cells LD50” value with SH-SY5Y cells (propidium iodide staining after 24 h of incubation, mean ± SD) is above 100 µM. Also, the “LD50 (SH-SY5Y)” value with SH-SY5Y cells (supplementary CSV) is listed as > 100 ?M. Moreover, the Kd in data set [2] was 3.95 ± 0.35 µM. Also, the “% compound remaining non-metabolized, human microsomes” value in data set [3] (after 10 min at 37 °C) came out at 82%. Besides, the “% compound remaining non-metabolized, human microsomes” value in data set [3] (after 20 min at 37 °C) is 74%. This compound also showed a microsomal CLint at 1 h in data set [3] (human, liver microsomes (pooled), pH 7.4, 37 °C) of 8 µL/min/mg. In addition, the half-life at 1 h in data set [3] (human, liver microsomes (pooled), pH 7.4, 37 °C, read-out: t1/2, human microsomes) was 1.52 h. For the same compound, the amount remaining at 1 h in data set [3] (human, liver microsomes (pooled), pH 7.4, after 1 h of incubation at 37 °C, read-out: % remaining compound, human microsomes) came to 55%.
